Where a name gives a salt, the structure may show the parent alone.
Target: T1, mGluR5 receptor (pig) (Sus scrofa, UniProt I3LUI7)
T1 construct: 450 μg protein from brain homogenate is incubated with 5 nM; from tissue; host or cells: pig brain halves without medulla, cerebellum and pons; homogenate, differential centrifugation
Test: [3H]-MPEP binding assay, pig brain homogenate
Conditions: displacement of 5 nM [3H]-MPEP, 450 μg protein from pig brain homogenate, 60 min, room temperature; read-out: IC50 [3H]-MPEP bond mGluR5 receptor (pig)
Experimental: Substituted imidazo[2,1-b]thiazole compounds corresponding to the foregoing formula I are likewise particularly preferred, which, after 60 minutes of incubation in 450 μg protein from pig brain homogenate at a temperature between 20° C. and 25° C. in a concentration of less than 2500 nM, preferably less than 1000 nM, particularly preferably less than 700 nM, very particularly preferably less than 100 nM, even more preferably less than 70 nM, bring about a 50-percent displacement of [^3H]-2-methyl-6-(3-methoxyphenyl)-ethynylpyridine which is present in a concentration of 5 nM. The determination of the displacement of [^3H]-2-methyl-6-(3-methoxyphenyl)-ethynyl-pyridine is performed as described hereinafter in the section Pharmacological Methods, I. Method for determining the inhibition of [^3H]-MPEP-bonding in the mGluR5 receptor bonding assay.
1. Method for Determining the Affinity to the mGluR5 Receptor
Pig brain homogenate is produced by homogenization (Polytron PT 3000, Kinematica AG, 10,000 rpm for 90 seconds) of pig brain halves without medulla, cerebellum and pons in buffer pH 8.0 (30 mM Hepes, Sigma, order no. H3375+1 tablet complete to 100 ml, Roche Diagnostics, order no. 1836145) in ratio 1:20 (brain weight/volume) and differential centrifugation at 900×g and 40,000×g. In each case, 450 μg protein from brain homogenate is incubated with 5 nM ^3-[H]-MPEP (Tocris, order no. R1212) (MPEP=2-methyl-6-(3-methoxyphenyl)-ethynylpyridine) in 250 μl incubation batches in 96 well microtitration plates and the compounds to be tested (10 μM in the test) in buffer (as above) at room temperature for 60 min.
Thereafter, the batches are filtered with the help of a Brandel Cell Harvester (Brandel, TYP Robotic 9600) on unifilter plates with glass fibre filter mats (Perkin Elmer, order no. 6005177) and subsequently washed with buffer (as above) 3 times with in each case 250 μl per sample. The filter plates are subsequently dried for 60 min at 55° C. 30 μL Ultima Gold™ scintillator is subsequently added per well (Packard BioScience, order no. 6013159) and the samples are measured after 3 hours on the β-counter (Mikrobeta, Perkin Elmer). The unspecific bond is determined by addition of 10 μM MPEP (Tocris, order no. 1212).

T1 sequence (I3LUI7 19-1212): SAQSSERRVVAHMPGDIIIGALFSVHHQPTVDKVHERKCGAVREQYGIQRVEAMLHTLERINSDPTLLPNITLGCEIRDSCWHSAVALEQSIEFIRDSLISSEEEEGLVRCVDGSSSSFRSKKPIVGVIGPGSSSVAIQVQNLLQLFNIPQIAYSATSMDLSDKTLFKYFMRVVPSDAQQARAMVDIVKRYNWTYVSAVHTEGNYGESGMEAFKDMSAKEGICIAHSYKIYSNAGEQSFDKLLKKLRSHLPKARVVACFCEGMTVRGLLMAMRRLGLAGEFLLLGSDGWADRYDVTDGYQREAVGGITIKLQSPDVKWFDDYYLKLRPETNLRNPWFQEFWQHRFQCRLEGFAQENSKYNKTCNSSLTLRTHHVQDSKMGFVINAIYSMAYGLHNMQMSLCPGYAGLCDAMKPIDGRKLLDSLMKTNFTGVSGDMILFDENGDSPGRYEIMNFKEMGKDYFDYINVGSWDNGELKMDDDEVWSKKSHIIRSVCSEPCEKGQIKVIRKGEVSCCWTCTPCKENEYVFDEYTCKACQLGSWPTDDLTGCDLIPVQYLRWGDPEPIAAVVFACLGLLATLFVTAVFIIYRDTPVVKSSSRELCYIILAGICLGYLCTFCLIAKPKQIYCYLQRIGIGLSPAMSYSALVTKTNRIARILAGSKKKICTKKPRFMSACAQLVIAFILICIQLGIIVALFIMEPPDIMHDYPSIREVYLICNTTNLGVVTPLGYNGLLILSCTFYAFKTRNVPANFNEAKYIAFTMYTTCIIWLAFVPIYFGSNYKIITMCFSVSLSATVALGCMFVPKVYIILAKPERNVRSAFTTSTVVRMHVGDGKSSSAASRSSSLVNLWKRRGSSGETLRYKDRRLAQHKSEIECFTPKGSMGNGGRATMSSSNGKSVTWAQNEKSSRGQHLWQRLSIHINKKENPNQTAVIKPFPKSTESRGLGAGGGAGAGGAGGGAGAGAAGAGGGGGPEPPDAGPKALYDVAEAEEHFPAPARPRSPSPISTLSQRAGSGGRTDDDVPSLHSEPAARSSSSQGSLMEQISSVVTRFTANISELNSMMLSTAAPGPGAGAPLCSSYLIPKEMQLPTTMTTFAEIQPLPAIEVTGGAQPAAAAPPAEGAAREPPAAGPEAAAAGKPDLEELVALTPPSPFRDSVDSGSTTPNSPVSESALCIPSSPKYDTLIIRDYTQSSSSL

Q: `CC(C)(C)CC(C)(C)Nc1c(-c2ccc(C#Cc3ccccc3)s2)nc2sccn12` [Example 1, 6-(5-(phenylethynyl)thiophene-2-yl)-N-(2,4,4-trimethylpentane-2-yl)imidazo[2,1-b]thiazole-5-amine] was tested. Which IC50 did it give?
A: 2180 nM

Q: `CC(C)(C)Nc1c(-c2ccc(C#Cc3ccccn3)s2)nc2sccn12` [Example 2, N-tert-butyl-6-(5-(pyridine-2-ylethynyl)thiophene-2-yl)imidazo[2,1-b]thiazole-5-amine] was tested. Which IC50 did it give?
A: 6.3 nM

Q: `Cc1csc2nc(-c3ccc(C#Cc4ccccn4)s3)c(NC(C)(C)C)n12` [Example 3, N-tert-butyl-3-methyl-6-(5-(pyridine-2-ylethynyl)thiophene-2-yl)imidazo[2,1-b]thiazole-5-amine hydrochloride] was tested. Which IC50 did it give?
A: 12 nM

Q: Which IC50 does the source give for `Cc1sc2nc(-c3ccc(C#Cc4ccccn4)s3)c(NC(C)(C)C)n2c1C` [Example 5, N-tert-butyl-2,3-dimethyl-6-(5-(pyridine-2-ylethinyl)thiophene-2-yl)-imidazo[2,1-b]thiazole-5-amine hydrochloride] here?
A: 17 nM

Q: Which IC50 does the source give for `CC(C)(C)Nc1c(-c2ccc(C#Cc3ccccn3)s2)nc2sc(Cl)cn12` [Example 6, N-tert-butyl-2-chloro-6-(5-(pyridine-2-ylethinyl)thiophene-2-yl)-imidazo[2,1-b]thiazole-5-amine hydrochloride] here?
A: 9.9 nM

Q: Which IC50 does the source give for `COC(=O)c1cn2c(NC(C)(C)C)c(-c3ccc(C#Cc4ccccn4)s3)nc2s1` [Example 8, 5-(tert-butylamino)-6-(5-(pyridine-2-ylethinyl)thiophene-2-yl)-imidazo[2,1-b]thiazole-2-carbonic acid methylester hydrochloride] here?
A: 160 nM

Q: With `CC(C)(C)CC(C)(C)Nc1c(-c2ccc(C#Cc3ccccn3)s2)nc2sccn12` [Example 10] as the compound, how does the IC50 read?
A: 100 nM

Q: `Cc1cn2c(NC(C)(C)C)c(-c3ccc(C#Cc4ccccn4)cc3)nc2s1` [Example 11, N-tert-butyl-2-methyl-6-(4-(pyridine-2-ylethynyl)phenyl)imidazo[2,1-b]thiazole-5-amine] was tested. Which IC50 did it give?
A: 20 nM

Q: `CC(C)(C)Nc1c(-c2ccc(C#Cc3ccccn3)o2)nc2sccn12` [Example 12, N-tert-butyl-6-(5-(pyridine-2-ylethynyl)furan-2-yl)imidazo[2,1-b]thiazole-5-amine] was tested. Which IC50 did it give?
A: 87 nM

Q: With `Nc1c(-c2ccc(C#Cc3ccccn3)s2)nc2sccn12` [Example 14, 6-(5-(pyridine-2-ylethynyl)thiophene-2-yl)imidazo[2,1-b]thiazole-5-amine] as the compound, how does the IC50 read?
A: 140 nM

Q: Which IC50 does the source give for `CC(C)(C)Nc1c(-c2ccc(C#Cc3ncccn3)s2)nc2sccn12` [Example 15, N-tert-butyl-6-(5-(pyrimidine-2-ylethynyl)thiophene-2-yl)imidazo[2,1-b]thiazole-5-amine] here?
A: 10 nM

Q: `CC(C)(C)Nc1c(-c2ccc(C#Cc3ncccc3F)s2)nc2sccn12` [Example 16, N-tert-butyl-6-(5-((3-fluoropyridine-2-yl)ethynyl)thiophene-2-yl)imidazo[2,1-b]thiazole-5-amine] was tested. Which IC50 did it give?
A: 13 nM

Q: With `CC(C)(C)Nc1c(-c2ccc(C#Cc3ccnc(F)c3)s2)nc2sccn12` [Example 17, N-tert-butyl-6-(5-((2-fluoropyridine-4-yl)ethynyl)thiophene-2-yl)imidazo[2,1-b]thiazole-5-amine] as the compound, how does the IC50 read?
A: 18 nM

Q: For `CC(C)(C)Nc1c(-c2ccc(C#Cc3cccs3)s2)nc2sccn12` [Example 18, N-tert-butyl-6-(5-(thiophene-2-ylethynyl)thiophene-2-yl)imidazo[2,1-b]thiazole-5-amine], which IC50 is on record?
A: 45 nM

Q: How did the IC50 turn out when `CC(C)(C)Nc1c(-c2ccc(C#Cc3nccs3)s2)nc2sccn12` [Example 19, N-tert-butyl-6-(5-(thiazole-2-ylethynyl)thiophene-2-yl)imidazo[2,1-b]thiazole-5-amine] was run?
A: 24 nM

Q: For `CC(C)(C)Nc1c(-c2ccc(C#Cc3cccc(O)c3)s2)nc2sccn12` [Example 20, 3-((5-(5-(tert-butylamino)imidazo[2,1-b]thiazole-6-yl)thiophene-2-yl)ethynyl)phenol], which IC50 is on record?
A: 170 nM

Q: How did the IC50 turn out when `CC(C)(C)Nc1c(-c2ccc(C#Cc3cccc(C#N)c3)s2)nc2sccn12` [Example 21, 3-((5-(5-(tert-butylamino)imidazo[2,1-b]thiazole-6-yl)thiophene-2-yl)ethynyl)benzonitrile] was run?
A: 26 nM

Q: With `Cc1cccnc1C#Cc1ccc(-c2nc3sccn3c2NC(C)(C)C)s1` [Example 23, N-tert-butyl-6-(5-((3-methylpyridine-2-yl)ethynyl)thiophene-2-yl)imidazo[2,1-b]thiazole-5-amine] as the compound, how does the IC50 read?
A: 230 nM

Same assay, conditions: test compound 10 μM; inhibition of [3H]-MPEP binding, pig brain homogenate

Q: How did the inhibition at 10 µM turn out when `Cc1csc2nc(-c3ccc(C#Cc4ccccc4)s3)c(NC(C)(C)C)n12` [Example 13, N-tert-butyl-3-methyl-6-(5-(phenylethynyl)thiophene-2-yl)imidazo[2,1-b]thiazole-5-amine] was run?
A: 48%

Q: With `CCNc1c(-c2ccc(C#Cc3ccccc3)nc2)nc2sccn12` [Example 22, N-ethyl-6-(6-(phenylethynyl)pyridine-3-yl)imidazo[2,1-b]thiazole-5-amine] as the compound, how does the inhibition at 10 µM read?
A: 82%

Tested on: rat
Test: Formalin test in rats (phase 2, chronic pain component)
Assay type: in vivo
Conditions: iv, administered 30 min before formalin, observed 21 to 27 min after formalin injection
Experimental: 2a. Formalin Test in Rats The formalin test (Dubuisson, D. and Dennis, S. G., 1977, Pain, 4, 161-174) represents a model for acute and chronic pain. A biphasic nociceptive reaction, which is recorded by observation of three clearly differentiable behavioural patterns, is induced by a single formalin injection into the dorsal side of a rear paw in freely mobile test animals. The reaction has two phases: Phase 1=Immediate reaction (duration up to 10 min; paw shaking, licking), Phase 2=Late reaction (after a rest phase; likewise, paw shaking, licking; duration up to 60 min). The 1st phase reflects a direct stimulation of the peripheral nocisensors with high spinal nociceptive input or glutamate release (acute pain phase); the 2nd phase reflects a spinal and peripheral hypersensitisation (chronic pain phase). In the investigations presented here, the chronic pain component (phase 2) was evaluated. Formalin with a volume of 50 μl and a concentration of 5% is administered subcutaneously into the dorsal side of the right rear paw of each animal. The substances to be tested are administered 30 min before the formalin injection orally (p.o), intravenously (i.v.) or intraperitoneally (i.p.). The specific changes in behavior such as lifting and shaking the paw, shifts in weight of the animal as well as biting and licking reactions are observed and registered in the period of observation from 21 to 27 min after formalin injection. The various forms of behavior are summarized in the so-called pain rate (PR), which, relative to the sub-intervals of 3 min, represents the calculation of an average nociception reaction. […] The group size is 10 animals (n=10). 2b. Formalin Test in Mice

Q: `CC(C)(C)Nc1c(-c2ccc(C#Cc3ccccn3)s2)nc2sccn12` [Example 2, N-tert-butyl-6-(5-(pyridine-2-ylethynyl)thiophene-2-yl)imidazo[2,1-b]thiazole-5-amine] was tested. Which ED50 did it give?
A: 0.47 mg/kg

Same assay, conditions: p.o., 10 mg/kg, administered 30 min before formalin

Q: How did the “Formalin test (rat) p.o. Reduction in the nociceptive behavior over controls at 10 mg/kg” value turn out when `CC(C)(C)Nc1c(-c2ccc(C#Cc3ccccn3)s2)nc2sccn12` [Example 2, N-tert-butyl-6-(5-(pyridine-2-ylethynyl)thiophene-2-yl)imidazo[2,1-b]thiazole-5-amine] was run?
A: 66%
